Two compounds from patent US20090226500A1, “SUTURES AND ANTI-SCARRING AGENTS” (Angiotech Pharmaceuticals, Inc, priority 2006, published 2009) can be followed below.

For test [1], the system named is MCP-1 production by THP-1 cells. Nature of the test: MCP-1 production by macrophages. The class given is cell-based, human. The conditions noted are these: Homo sapiens; THP-1 cells stimulated with opsonized zymosan, 24 hours; read-out: IC50 MCP-1 production. The method in brief:
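THP-1 cells (1×10^6/well, 10% FCS) stimulated with 1 mg/ml serum-opsonized zymosan plus compound added from DMSO stocks at 1/1000, 24 h at 37° C. MCP-1 in supernatants quantified by sandwich ELISA (TMB read-out) against a recombinant human MCP-1 standard curve, triplicates, background-subtracted.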

The test system of test [2] is TNFα production by THP-1 cells. As to the kind of experiment: TNF-alpha production by macrophages. Particulars: Homo sapiens; THP-1 cells stimulated with opsonized zymosan, 24 hours; read-out: IC50 TNFα production. The class given is cell-based, human. An outline of the steps:
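THP-1 cells (1×10^6 per well, 10% FCS) were stimulated with 1 mg/ml serum-opsonized zymosan and incubated with drug in triplicate for 24 h at 37 °C. TNFα in the supernatants was quantified by sandwich ELISA (HRP/TMB read-out) against a recombinant human TNFα standard curve.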

Take `CC1=C(O)C(=O)C=C2C1=CC=C1[C@@]2(C)CC[C@@]2(C)[C@@H]3C[C@](C)(C(=O)O)CC[C@]3(C)CC[C@]12C` [celastrol]: the IC50 amounted to 421 nM in test [1] and 87 nM in test [2].

`COc1c(C)c2c(c(O)c1C/C=C(\C)CCC(=O)O)C(=O)OC2` [mycophenolic acid]: the IC50 in test [1] is 764 nM; in test [2], 756 nM.
